Tested on: U2OS, H460, HTB-9, ES2, HCT116, Capan, OVCAR3, DU145, SK-Mel-5, KB, A498, MCF-7, HepG2, T98G, K562, HeLa
Assay: MTT Cytotoxic Assay of reaction products and isolated compounds
Assay type: cell-based
From the text: The peaks, fractions and compounds are selected according to the activities of times studies and the changes of peaks. Selecting the HPLC fractions for isolation is according to the cytotoxic activity of the reaction product obtained at a specific time. The compounds having strong to weak activities are selected and isolated. Selecting the HPLC fractions for isolation may be according to the cytotoxic activity of times studies and the change of peaks. The anti cancer activities are the MTT studies of bone (U2OS), lung (H460), bladder (HTB-9), ovary (ES2), colon (HCT116), pancreas (Capan), ovary (OVCAR3), prostate (DU145), skin (SK-Mel-5), mouth (KB), kidney (A498), breast (MCF-7), liver (HepG2), brain (T98G), luekemia (K562), cervix (HeLa).
Esterification, amidation, amination, or sulfonamidation of compound (A), (B), (C), (D1), (D2), (E), (F), (G), (H1), (H2), E4A, E4A2Y, E4D, E4D1, (P1), P(2), terpene, isoprene, triterpenes, hydroxylated triterpenes, with acyl halide, wherein the halide comprise chloride, bromide, fluoride and iodide, wherein the acyl halide comprise acyl chloride, wherein acyl chloride comprise tigloyl chloride, angeloyl chloride, acetyl chloride, crotonoyl chloride, 3,3-dimethylartyloyl chloride, senecioyl chloride, cinnamoyl chloride, pentenoyl chloride, hexanoyl chloride, benzoyl chloride, ethylbutyryl chloride, propionyl chloride, 2-propenoyl chloride, isobutyryl chloride, butyryl chloride, (2E)-2-pentenoyl chloride, 4-Pentenoyl chloride, 5-hexenoyl chloride, heptanoyl chloride, octanoyl chloride, nonanoyl chloride, decanoyl chloride, Lauroyl chloride, myristoyl chloride, oleoyl chloride. The compounds vary in composition when the time or temperature of the reaction is changed. The peaks, fractions and compounds are selected according to the activities of times studies and the changes of peaks. The compounds having strong to weak activities are selected and isolated. The anti cancer activities (Cytotoxic Assay) are the MTT studies of bone (U2OS), lung (H460), bladder (HTB-9), ovary (ES2), colon (HCT116), pancreas (Capan), ovary (OVCAR3), prostate (DU145), skin (SK-Mel-5), mouth (KB), kidney (A498), breast (MCF-7), liver (HepG2), brain (T98G), luekemia (K562), cervix (HeLa). The active esterification, amidation, amination, or sulfonamidation products are purified with HPLC. The reaction product of mixtures and individual compounds are tested with MTT Cytotoxic Assay. Details of method are in Experiment 3 of the present application. A second esterification of compound can be selected from the above experiment results to produce new active compounds. A partial esterification compound is selected from the above experiments to perform a second or repeated with a third esterification with different acyl chloride in order to produce new active compounds with the experiments in the present application. The active compounds of this invention are triterpenes in form of amine, sulfonamides, amide, and urea analogs, providing extremely stable activity in solution. They prolong the activities and duration of drug in a subject.
Cells. HTB-9 (bladder), HeLa-S3 (cervix), DU145 (prostate), H460 (lung), MCF-7 (breast), K562 (leukemia), HCT116 (colon), HepG2 (liver), U2OS (bone), T98G (brain), SK-MEL-5 (Skin) and OVCAR 3, ES2 (ovary), Pancreas (Capan), Mouth (KB), Kidney (A498).
MTT Assay. The procedure for MTT assay followed the method described by Carmichael et al. (1987) with modifications. The cells were seeded into a 96-well plate at for 24 hours before drug-treatment. The cells were then exposed to the drugs for 48, 72, or 96 hours. After the drug-treatment, MTT (0.5 mg/mL) was added to cultures and incubated for an hour. The formazan (product of the reduction of tetrazolium by viable cells) formed and was dissolved with DMSO and the O.D. at 490 nm, and was measured by an ELISA reader. The MTT level of the cells before drug-treatment was also measured (T0). […]

Compound	Cytotoxicity activity
CC=C(C)C(=O)NCC1(C)C(N)CCC2(C)C1CCC1(C)C2CC=C2C3CC(C)(C)C(N)C(N)C3(CNC(=O)C(C)=CC)C(N)CC21C (centres unmarked) [AA1]	moderate
CC=C(C)C(=O)NCC1(C)C(O)CCC2(C)C1CCC1(C)C2CC=C2C3CC(C)(C)C(O)C(O)C3(CNC(=O)C(C)=CC)C(O)CC21C (centres unmarked) [AA2]	strong
CC=C(C)C(=O)NCC1(C)C(N)CCC2(C)C1CCC1(C)C2CC=C2C3CC(C)(C)C(NC(=O)C(C)=CC)C(N)C3(CN)C(N)CC21C (centres unmarked) [AA3]	moderate
CC=C(C)C(=O)NCC1(C)C(N)CCC2(C)C1CCC1(C)C2CC=C2C3CC(C)(C)C(NC(=O)C(C)=CC)C(N)C3(CNC(=O)C(C)=CC)C(N)CC21C (centres unmarked) [AA4]	weak
CC(C)=CC(=O)NCC1(C)C(N)CCC2(C)C1CCC1(C)C2CC=C2C3CC(C)(C)C(N)C(N)C3(CNC(=O)C=C(C)C)C(N)CC21C (centres unmarked) [BB1]	moderate
CC(C)=CC(=O)NCC1(C)C(O)CCC2(C)C1CCC1(C)C2CC=C2C3CC(C)(C)C(O)C(O)C3(CNC(=O)C=C(C)C)C(O)CC21C (centres unmarked) [BB2]	strong
CC(C)=CC(=O)NCC1(C)C(N)CCC2(C)C1CCC1(C)C2CC=C2C3CC(C)(C)C(NC(=O)C=C(C)C)C(N)C3(CN)C(N)CC21C (centres unmarked) [BB3]	moderate
CC(C)=CC(=O)NCC1(C)C(N)CCC2(C)C1CCC1(C)C2CC=C2C3CC(C)(C)C(NC(=O)C=C(C)C)C(N)C3(CNC(=O)C=C(C)C)C(N)CC21C (centres unmarked) [BB4]	weak
C=CCCC(=O)NCC1(C)C(N)CCC2(C)C1CCC1(C)C2CC=C2C3CC(C)(C)C(N)C(N)C3(CNC(=O)CCC=C)C(N)CC21C (centres unmarked) [CC1]	moderate
C=CCCC(=O)NCC1(C)C(O)CCC2(C)C1CCC1(C)C2CC=C2C3CC(C)(C)C(O)C(O)C3(CNC(=O)CCC=C)C(O)CC21C (centres unmarked) [CC2]	strong
C=CCCC(=O)NCC1(C)C(N)CCC2(C)C1CCC1(C)C2CC=C2C3CC(C)(C)C(NC(=O)CCC=C)C(N)C3(CN)C(N)CC21C (centres unmarked) [CC3]	moderate
C=CCCC(=O)NCC1(C)C(N)CCC2(C)C1CCC1(C)C2CC=C2C3CC(C)(C)C(NC(=O)CCC=C)C(N)C3(CNC(=O)CCC=C)C(N)CC21C (centres unmarked) [CC4]	weak
CCCCCC(=O)NCC1(C)C(N)CCC2(C)C1CCC1(C)C2CC=C2C3CC(C)(C)C(N)C(N)C3(CNC(=O)CCCCC)C(N)CC21C (centres unmarked) [DD1]	moderate
CCCCCC(=O)NCC1(C)C(O)CCC2(C)C1CCC1(C)C2CC=C2C3CC(C)(C)C(O)C(O)C3(CNC(=O)CCCCC)C(O)CC21C (centres unmarked) [DD2]	strong
CCCCCC(=O)NCC1(C)C(N)CCC2(C)C1CCC1(C)C2CC=C2C3CC(C)(C)C(NC(=O)CCCCC)C(N)C3(CN)C(N)CC21C (centres unmarked) [DD3]	moderate
CCCCCC(=O)NCC1(C)C(N)CCC2(C)C1CCC1(C)C2CC=C2C3CC(C)(C)C(NC(=O)CCCCC)C(N)C3(CNC(=O)CCCCC)C(N)CC21C (centres unmarked) [DD4]	weak
CCC(CC)C(=O)NCC1(C)C(N)CCC2(C)C1CCC1(C)C2CC=C2C3CC(C)(C)C(N)C(N)C3(CNC(=O)C(CC)CC)C(N)CC21C (centres unmarked) [EE1]	moderate
CCC(CC)C(=O)NCC1(C)C(O)CCC2(C)C1CCC1(C)C2CC=C2C3CC(C)(C)C(O)C(O)C3(CNC(=O)C(CC)CC)C(O)CC21C (centres unmarked) [EE2]	strong
CCC(CC)C(=O)NCC1(C)C(N)CCC2(C)C1CCC1(C)C2CC=C2C3CC(C)(C)C(NC(=O)C(CC)CC)C(N)C3(CN)C(N)CC21C (centres unmarked) [EE3]	moderate
CCC(CC)C(=O)NCC1(C)C(N)CCC2(C)C1CCC1(C)C2CC=C2C3CC(C)(C)C(NC(=O)C(CC)CC)C(N)C3(CNC(=O)C(CC)CC)C(N)CC21C (centres unmarked) [EE4]	weak
CC(=O)NCC1(C)C(N)CCC2(C)C1CCC1(C)C2CC=C2C3CC(C)(C)C(N)C(N)C3(CNC(C)=O)C(N)CC21C (centres unmarked) [HH1]	moderate

Compound	Cytotoxicity activity
CC(=O)NCC1(C)C(O)CCC2(C)C1CCC1(C)C2CC=C2C3CC(C)(C)C(O)C(O)C3(CNC(C)=O)C(O)CC21C (centres unmarked) [HH2]	strong
CC(=O)NCC1(C)C(N)CCC2(C)C1CCC1(C)C2CC=C2C3CC(C)(C)C(NC(C)=O)C(N)C3(CN)C(N)CC21C (centres unmarked) [HH3]	moderate
CC(=O)NCC1(C)C(N)CCC2(C)C1CCC1(C)C2CC=C2C3CC(C)(C)C(NC(C)=O)C(N)C3(CNC(C)=O)C(N)CC21C (centres unmarked) [HH4]	weak
CC=CC(=O)NCC1(C)C(O)CCC2(C)C1CCC1(C)C2CC=C2C3CC(C)(C)C(O)C(O)C3(CNC(=O)C=CC)C(O)CC21C (centres unmarked) [I I2]	strong
CC=CC(=O)NCC1(C)C(N)CCC2(C)C1CCC1(C)C2CC=C2C3CC(C)(C)C(NC(=O)C=CC)C(N)C3(CN)C(N)CC21C (centres unmarked) [I I3]	moderate
CC=CC(=O)NCC1(C)C(N)CCC2(C)C1CCC1(C)C2CC=C2C3CC(C)(C)C(N)C(N)C3(CNC(=O)C=CC)C(N)CC21C (centres unmarked) [II 1]	moderate
CC=CC(=O)NCC1(C)C(N)CCC2(C)C1CCC1(C)C2CC=C2C3CC(C)(C)C(NC(=O)C=CC)C(N)C3(CNC(=O)C=CC)C(N)CC21C (centres unmarked) [II 4]	weak
CC1(C)CC2C3=CCC4C5(C)CCC(N)C(C)(CNC(=O)C=Cc6ccccc6)C5CCC4(C)C3(C)CC(N)C2(CNC(=O)C=Cc2ccccc2)C(N)C1N (centres unmarked) [JJ1]	moderate
CC1(C)CC2C3=CCC4C5(C)CCC(O)C(C)(CNC(=O)C=Cc6ccccc6)C5CCC4(C)C3(C)CC(O)C2(CNC(=O)C=Cc2ccccc2)C(O)C1O (centres unmarked) [JJ2]	strong
CC1(C)CC2C3=CCC4C5(C)CCC(N)C(C)(CNC(=O)C=Cc6ccccc6)C5CCC4(C)C3(C)CC(N)C2(CN)C(N)C1NC(=O)C=Cc1ccccc1 (centres unmarked) [JJ3]	moderate
CC1(C)CC2C3=CCC4C5(C)CCC(N)C(C)(CNC(=O)C=Cc6ccccc6)C5CCC4(C)C3(C)CC(N)C2(CNC(=O)C=Cc2ccccc2)C(N)C1NC(=O)C=Cc1ccccc1 (centres unmarked) [JJ4]	weak
CC1(C)CC2C3=CCC4C5(C)CCC(N)C(C)(CNC(=O)c6ccccc6)C5CCC4(C)C3(C)CC(N)C2(CNC(=O)c2ccccc2)C(N)C1N (centres unmarked) [KK1]	moderate
CC1(C)CC2C3=CCC4C5(C)CCC(O)C(C)(CNC(=O)c6ccccc6)C5CCC4(C)C3(C)CC(O)C2(CNC(=O)c2ccccc2)C(O)C1O (centres unmarked) [KK2]	strong
CC1(C)CC2C3=CCC4C5(C)CCC(N)C(C)(CNC(=O)c6ccccc6)C5CCC4(C)C3(C)CC(N)C2(CN)C(N)C1NC(=O)c1ccccc1 (centres unmarked) [KK3]	moderate
CC1(C)CC2C3=CCC4C5(C)CCC(N)C(C)(CNC(=O)c6ccccc6)C5CCC4(C)C3(C)CC(N)C2(CNC(=O)c2ccccc2)C(N)C1NC(=O)c1ccccc1 (centres unmarked) [KK4]	weak
CCC(=O)NCC1(C)C(N)CCC2(C)C1CCC1(C)C2CC=C2C3CC(C)(C)C(N)C(N)C3(CNC(=O)CC)C(N)CC21C (centres unmarked) [LL1]	moderate
CCC(=O)NCC1(C)C(O)CCC2(C)C1CCC1(C)C2CC=C2C3CC(C)(C)C(O)C(O)C3(CNC(=O)CC)C(O)CC21C (centres unmarked) [LL2]	strong
CCC(=O)NCC1(C)C(N)CCC2(C)C1CCC1(C)C2CC=C2C3CC(C)(C)C(NC(=O)CC)C(N)C3(CN)C(N)CC21C (centres unmarked) [LL3]	moderate
CCC(=O)NCC1(C)C(N)CCC2(C)C1CCC1(C)C2CC=C2C3CC(C)(C)C(NC(=O)CC)C(N)C3(CNC(=O)CC)C(N)CC21C (centres unmarked) [LL4]	weak
C=CC(=O)NCC1(C)C(N)CCC2(C)C1CCC1(C)C2CC=C2C3CC(C)(C)C(N)C(N)C3(CNC(=O)C=C)C(N)CC21C (centres unmarked) [MM1]	moderate

— patent US20230159436A1, “APPLICATIONS OF AMIDE ANALOGS OF TRITERPENES IN CURES OF CANCER AND OTHER DISEASES” (Pacific Arrow Limited, priority 2021, published 2023)
